Experimental data published in patent US11708348B2, “Protease inhibitors for treatment of coronavirus infections” (The Scripps Research Institute, priority 2021, dated 2023).
Like-named read-outs stand apart in the source and are kept apart here.

Key:
COVID-2 M^pro protease = COVID-2 M^pro protease (Severe acute respiratory syndrome coronavirus 2, UniProt P0DTD1); settings: cell and enzyme assays; cited from earlier work
[1] = system: hospitalized COVID-19 patients; settings: large multi-center trial; cited from earlier work
[2] = system: SARS-CoV-2 strain USA-WA1/2020; assay: microbe, parasite or virus in culture; type: cell-based; settings: Severe acute respiratory syndrome coronavirus 2, HeLa-ACE2, 24 h, HeLa-ACE2 cells, SARS-CoV-2 infection, 24 h, read-out: EC50, uM (Hela)

Row | Structure (SMILES) | EC50 [2] [µM] | further results
1 | COCC(=O)[C@H](C[C@@H]1CCNC1=O)NC(=O)[C@H](CC(C)C)NC(=O)c1cc2c(OC)cccc2[nH]1 [methyl ether of PF-00835231] |  | fold less active than PF-00835231 (COVID-2 M^pro protease): 3-5 fold
2 | CCN(CCO)CCCC(C)Nc1ccnc2cc(Cl)ccc12 (stereo not shown) [hydroxychloroquine] |  | mortality of hospitalized COVID-19 patients [1]: failed to reduce mortality
3 | Cc1cccc(C)c1OCC(=O)N[C@@H](Cc1ccccc1)[C@@H](O)C[C@H](Cc1ccccc1)NC(=O)[C@H](C(C)C)N1CCCNC1=O [lopinavir] |  | mortality of hospitalized COVID-19 patients [1]: failed to reduce mortality
4 | C[C@@H](O)C(=O)N1CC2(CC2)C[C@H]1C(=O)N[C@@H](C[C@@H]1CCNC1=O)C(=O)COC(F)(F)F [Compound 697, (S)-5-((R)-2-hydroxypropanoyl)-N-((S)-3-oxo-1-((S)-2-oxopyrrolidin-3-yl)-4-(trifluoromethoxy)butan-2-yl)-5-azaspiro[2.4]heptane-6-carboxamide] | 0.05 to 0.2 | 
5 | CC(C)C[C@H](NC(=O)[C@H](O)C(C)C)C(=O)N[C@@H](C[C@@H]1CCNC1=O)C(=O)COC(F)(F)F [Compound 355, (S)-2-((R)-2-hydroxy-3-methylbutanamido)-4-methyl-N-((S)-3-oxo-1-((S)-2-oxopyrrolidin-3-yl)-4-(trifluoromethoxy)butan-2-yl)pentanamide] |  | EC50 ([2]; class symbols): 0.05 to 0.2 µM
6 | O=C1NCC[C@H]1C[C@H](NC(=O)[C@@H]1[C@H]2CCC[C@H]2CN1C(=O)c1csc(C(F)(F)F)n1)C(=O)COC(F)(F)F [Compound 476, (1S,3aR,6aS)-N-((S)-3-oxo-1-((S)-2-oxopyrrolidin-3-yl)-4-(trifluoromethoxy)butan-2-yl)-2-(2-(trifluoromethyl)-thiazole-4-carbonyl)-octahydrocyclo-penta[c]pyrrole-1-carboxamide] | < 0.05 | 
7 | CC(C)[C@@H](O)CC(=O)N1CC2(CC2)C[C@H]1C(=O)N[C@@H](C[C@@H]1CCNC1=O)C(=O)COC(F)(F)F [Compound 432, (S)-5-((S)-3-hydroxy-4-methylpentanoyl)-N-((S)-3-oxo-1-((S)-2-oxopyrrolidin-3-yl)-4-(trifluoromethoxy)butan-2-yl)-5-azaspiro[2.4]heptane-6-carboxamide] | 0.05 to 0.2 | 
8 | COc1cccc(NC(=O)C(=O)N2CC3(CC3)C[C@H]2C(=O)N[C@@H](C[C@@H]2CCNC2=O)C(=O)COC(F)(F)F)c1F [Compound 599, (S)-5-(2-((2-fluoro-3-methoxyphenyl)amino)-2-oxoacetyl)-N-((S)-3-oxo-1-((S)-2-oxopyrrolidin-3-yl)-4-(trifluoromethoxy)butan-2-yl)-5-azaspiro[2.4]heptane-6-carboxamide] | < 0.05 | 
9 | C[C@@H](C[C@@H](O)C(=O)N1CC2(CC2)C[C@H]1C(=O)N[C@@H](C[C@@H]1CCNC1=O)C(=O)COC(F)(F)F)C(F)(F)F [Compound 427, (S)-N-((S)-3-oxo-1-((S)-2-oxopyrrolidin-3-yl)-4-(trifluoromethoxy)butan-2-yl)-5-((2R,4S)-5,5,5-trifluoro-2-hydroxy-4-methylpentanoyl)-5-azaspiro[2.4]heptane-6-carboxamide] | < 0.05 | 
10 | CC(C)C[C@@H](OC(F)F)C(=O)N1CC2(CC2)C[C@H]1C(=O)N[C@@H](C[C@@H]1CCNC1=O)C(=O)COC(F)(F)F [Compound 333, (S)-5-((R)-2-(difluoromethoxy)-4-methylpentanoyl)-N—((S)-3-oxo-1-((S)-2-oxopyrrolidin-3-yl)-4-(trifluoromethoxy)butan-2-yl)-5-azaspiro[2.4]heptane-6-carboxamide] |  | EC50 ([2]; class symbols): < 0.05 µM
11 | [2H]C(C)(C)C(=O)N1CC2(CC2)C[C@H]1C(=O)N[C@@H](C[C@@H]1CCNC1=O)C(=O)COC(F)(F)F [Compound 738, (S)-5-(2-methylpropanoyl-2-d)-N-((S)-3-oxo-1-((S)-2-oxopyrrolidin-3-yl)-4-(trifluoromethoxy)butan-2-yl)-5-azaspiro[2.4]heptane-6-carboxamide] | 0.05 to 0.2 | 
12 | O=C1NCC[C@H]1C[C@H](NC(=O)[C@@H]1CC2(CC2)CN1C(=O)CCC(F)F)C(=O)COC(F)(F)F [Compound 683, (S)-5-(4,4-difluorobutanoyl)-N-((S)-3-oxo-1-((S)-2-oxopyrrolidin-3-yl)-4-(trifluoromethoxy)butan-2-yl)-5-azaspiro[2.4]heptane-6-carboxamide] | 0.05 to 0.2 | 
13 | CC(C)(C)C[C@@H](O)C(=O)N1C[C@H]2[C@@H]([C@H]1C(=O)N[C@@H](C[C@@H]1CCNC1=O)C(=O)COC(F)(F)F)C2(C)C [Compound 454, (1R,2S,5S)-3-((R)-2-hydroxy-4,4-dimethylpentanoyl)-6,6-dimethyl-N-((S)-3-oxo-1-((S)-2-oxopyrrolidin-3-yl)-4-(trifluoromethoxy)butan-2-yl)-3-azabicyclo[3.1.0]-hexane-2-carboxamide] | < 0.05 | 
14 | Cc1cc(F)ccc1NC(=O)C(=O)N[C@@H](CC(C)C)C(=O)N[C@@H](C[C@@H]1CCNC1=O)C(=O)COc1c(F)c(F)cc(F)c1F [Compound 74, N1-(4-fluoro-2-methylphenyl)-N2-((S)-4-methyl-1-oxo-1-(((S)-3-oxo-1-((S)-2-oxopyrrolidin-3-yl)-4-(2,3,5,6-tetrafluorophenoxy)butan-2-yl)amino)pentan-2-yl)oxalamide] |  | EC50 ([2]; class symbols): 0.2 to 0.5 µM
15 | CC(C)C[C@H](NC(=O)C(=O)Nc1c(OC(C)C)cccc1OC(C)C)C(=O)N[C@@H](C[C@@H]1CCNC1=O)C(=O)COC(F)(F)F [Compound 170, Nl-(2,6-diisopropoxyphenyl)-N2-((S)-4-methyl-1-oxo-1-(((S)-3-oxo-1-((S)-2-oxopyrrolidin-3-yl)-4-(trifluoromethoxy)butan-2-yl)amino)pentan-2-yl)oxalamide] |  | EC50 ([2]; class symbols): < 0.05 µM
16 | CC(C)C[C@@H](OC(=O)C(C)C)C(=O)N1CC2(CC2)C[C@H]1C(=O)N[C@@H](C[C@@H]1CCNC1=O)C(=O)COC(F)(F)F [Compound 631, (R)-4-methyl-1-oxo-1-((S)-6-(((S)-3-oxo-l-((S)-2-oxopyrrolidin-3-yl)-4-(trifluoromethoxy)butan-2-yl)carbamoyl)-5-azaspiro[2.4]heptan-5-yl)pentan-2-yl isobutyrate] | 0.2 to 0.5 | 
17 | [2H]C([2H])([2H])CCCC(=O)N1CC2(CC2)C[C@H]1C(=O)N[C@@H](C[C@@H]1CCNC1=O)C(=O)COC(F)(F)F [Compound 763, (S)-N-((S)-3-oxo-1-((S)-2-oxopyrrolidin-3-yl)-4-(trifluoromethoxy)butan-2-yl)-5-(pentanoyl-5,5,5-d3)-5-azaspiro[2.4]heptane-6-carboxamide] | < 0.05 | 
18 | CNC(=O)N[C@H](CC(C)C)C(=O)N1CC2(CC2)C[C@H]1C(=O)N[C@@H](C[C@@H]1CCNC1=O)C(=O)COC(F)(F)F [Compound 435, (S)-5-((methylcarbamoyl)-D-leucyl)-N—((S)-3-oxo-1-((S)-2-oxopyrrolidin-3-yl)-4-(trifluoromethoxy)butan-2-yl)-5-azaspiro[2.4]heptane-6-carboxamide] | 0.2 to 0.5 | 
19 | CC(C)C[C@H](NC(=O)C(=O)NC1(c2ccccc2F)CC1)C(=O)N[C@@H](C[C@@H]1CCNC1=O)C(=O)COC(F)(F)F [Compound 216, Nl-(1-(2-fluorophenyl)-cyclopropyl)-N2-((S)-4-methyl-1-oxo-1-(((S)-3-oxo-1-((S)-2-oxopyrrolidin-3-yl)-4-(trifluoromethoxy)butan-2-yl)amino)pentan-2-yl)oxalamide] |  | EC50 ([2]; class symbols): < 0.05 µM
